In test [1] the test system is L1210. In words: Compound was evaluated for influx of L1210 cells. In kind it is functional, cell-based. To be noted: Mus musculus.
Test [2] has as its system L1210. In words: In vitro inhibition of L1210 cell growth. In kind it is functional, cell-based. To be noted: Mus musculus.

With `CCC(Cc1cnc2nc(N)nc(N)c2n1)c1ccc(C(=O)NC(CCC(=O)O)C(=O)O)cc1` (centres undefined), the Km in the test on L1210 [1] is 1.08 µM. This compound also yielded an IC50 in the test on L1210 [2] of 65 nM.

In the case of `CN(Cc1cnc2nc(N)nc(N)c2n1)c1ccc(C(=O)N[C@@H](CCC(=O)O)C(=O)O)cc1` [METHOTREXATE], in the test with L1210 [1], the Km worked out at 3.51 µM. This compound also had an IC50 with L1210 [2] of 3.4 nM.

(Values after ChEMBL document CHEMBL1125517, “Synthesis and antifolate evaluation of 10-ethyl-5-methyl-5,10- dideazaaminopterin and an alternative synthesis of 10-ethyl-10- deazaaminopterin (edatrexate)” (J Med Chem, 1992).)
